Measured values from patent US12679877B2, “NPRA agonists, compositions, and uses thereof” (PharmaIn Corporation, priority 2017, dated 2026).
Marks after values point to notes of the source that are not given here. No end group written: not given here. *: point of attachment. CH3(CH2)22CO = C24 acyl (CH3(CH2)22CO-), CCCCCCCCCCCCCCCCCCCCCCCC(=O)*; Docosanoyl = CCCCCCCCCCCCCCCCCCCCCC(=O)*

Experiments:
[1] = Plasma ANP level by ELISA after s.c. ANP in the same study; type: in vivo, Balb/c mice; details: ANP 12 mg/Kg s.c., injection at 0 hour and 6 hours; average of all groups with same dose; value (SEM)
Protocol: An investigation was carried out to determine whether prolonged presence of ANP in the blood would have a sustained pharmacodynamic effect, reflected by elevation of cGMP blood concentration, and to determine whether that elevation would be proportional to the level of ANP. The level of blood cGMP relative to ANP was determined. […] This problem had not been documented in literature and there was no reason to solve this previously unknown problem. […] For this study, 4 groups of Balb/c mice (n=3/group; female, 5-6 weeks old; 18-25 g) were used and the cGMP levels at various time points after ANP administration with and without 2nd ANP administration were evaluated. […] Two subsequent s.c. (subcutaneous) administrations of the ANP formulated in a polymeric excipient (to increase in vivo stability) were evaluated. […] The plasma samples were analyzed for cGMP using the cGMP ELISA kit (GE Healthcare Life Sciences, Marlborough, MA) according to manufacturer's protocol. […] The level of ANP associated with cGMP was also measured to further confirm receptor depletion was the result of lack of responsiveness if any. The associated level of ANP was measured using an ELISA assay kit (GE Healthcare Life Sciences, Marlborough, MA) according to manufacturer's protocol. […]

[2] = tested on: natriuretic peptide receptors (NPRA or NPRB); experiment: 2-point blood cGMP evaluation (2 and 6 hours) after 15 mg/Kg s.c., cGMP Direct Biotrak EIA; type: in vivo, CD-1 mice; details: for In vivo blood cGMP minus baseline, 2 hour (potency) / In vivo blood cGMP minus baseline, 6 hour (receptor depletion): 15 mg/Kg s.c. in mice (n=3), minus baseline 30 pmol/ml (n=12); for In vivo blood cGMP minus baseline, 2 hour (potency): 2 hours after dosing; for In vivo blood cGMP minus baseline, 6 hour (receptor depletion): 6 hours after dosing; for activity / potency compared to ANP, in words (2 hour data in Table 2): 15 mg/Kg s.c. in mice, blood cGMP
Protocol: Various derivatives of ANP were made and screened for increase in vivo potency while limiting the apparent receptor depletion effects (or perhaps can act on another cGMP enhancing receptors) by looking at the level of blood cGMP at specific time points. […] Various derivatives were made and tested in vivo to determine the level of blood cGMP at 2 hours and 6 hours after subcutaneous administration of 15 mg/Kg in mice (which was allometrically equivalent to human dose of 1.5 mg/Kg) with the goal of finding derivatives that were therapeutically useful for increasing blood cGMP.
For 2-point cGMP evaluation of various derivatives, test samples were dissolved in water (Lonza, Wakersville, MD) before being lyophilized. Prior to use, the lyophilized test sample was dissolved in saline then 15 mg/Kg was injected subcutaneously into female CD-1 mice 6-8 weeks (n=3). Blood samples were collected at 2 and 6 hours with K2EDTA blood collection tube. The collection tube was then centrifuged at 13,000 rpm for 10 minutes at 4° C. to separate plasma. The plasma was analyzed using the cGMP Direct Biotrak EIA (GE Healthcare Life Sciences, Marlborough, MA). Note that by using allometric scaling at exponent of 0.7 [dose in other species=mice dose/((mouse weight/weight of average other species)^0.7)], the 15 mg/Kg in mice is equivalent to about 7.5 mg/Kg rat dose, about 2.5 mg/Kg dog dose, and 1.5 mg/Kg human dose. For the purpose the present disclosure, the 15 mg/Kg in mice as presented in the relevant data examples, should be understood as equivalent to about 7.5 mg/Kg rat dose, which is equivalent to about 2.5 mg/Kg dog dose, which is equivalent to about 1.5 mg/Kg human dose. Because the mice cGMP response to 15 mg/Kg dose of the newly discovered derivatives (see Table 2) was quite high, it would be prudent to use daily doses that are lower than 15 mg/Kg for mice, 7.5 mg/Kg for rat, 2.5 mg/Kg for dog, and 1.5 mg/Kg for human since any higher dose may result in too much increase in cGMP that can result in too much or even dangerous drop in blood pressure unless formulated in a very slow release delivery system. In fact based on cGMP response it was more preferable to use daily doses that are lower than […], 1.5 mg/Kg for rat, 0.5 mg/Kg for dog, and 0.3 mg/Kg for human. Additionally, the level of blood cGMP is preferably between 1.5 to 3-times of the normal baseline level. The blood or plasma cGMP normal baseline level was about 20-50 pmol/ml but could vary slightly depending on the assay kit used to measure the level.

| Compound | 2 hrs. ANP level [1] | In vivo blood cGMP minus baseline, 2 hour (potency) [2] [pmol/mL] | In vivo blood cGMP minus baseline, 6 hour (receptor depletion) [2] [pmol/mL] | activity / potency compared to ANP, in words (2 hour data in Table 2) [2] |
| --- | --- | --- | --- | --- |
| CC[C@H](C)[C@@H]1NC(=O)[C@H](CCCNC(=N)N)NC(=O)[C@H](CC(=O)O)NC(=O)[C@H](CCSC)NC(=O)[C@H](CCCNC(=N)N)NC(=O)CNC(=O)CNC(=O)[C@H](Cc2ccccc2)NC(=O)[C@@H](NC(=O)[C@H](CO)NC(=O)[C@H](CO)NC(=O)[C@H](CCCNC(=N)N)NC(=O)[C@H](CCCNC(=N)N)NC(=O)[C@H](CC(C)C)NC(=O)[C@@H](N)CO)CSSC[C@@H](C(=O)N[C@@H](CC(N)=O)C(=O)N[C@@H](CO)C(=O)N[C@@H](Cc2ccccc2)C(=O)N[C@@H](CCCNC(=N)N)C(=O)N[C@@H](Cc2ccc(O)cc2)C(=O)O)NC(=O)CNC(=O)[C@H](CC(C)C)NC(=O)CNC(=O)[C@H](CO)NC(=O)[C@H](CCC(N)=O)NC(=O)[C@H](C)NC(=O)CNC1=O [SEQ ID NO. 1] | 67.24 (6.92)* ng/ml | – | – | – |
| CH3(CH2)20COKKKKGGGSLRRSSCFGGRMDRIGAQSGLGCNSFRY (Docosanoyl-KKKKGGGSLRRSSCFGGRMDRIGAQSGLGCNSFRY; not fully specified (bridges); printed as CH3(CH2)20COKKKKGGGSLRRSSCFGGRMDRIGAQSGLGCNSFRY; cysteine pairing not given here; listed as Homo Sapiens) [SEQ ID NO. 94] | – | 263.8 | 255.4 | – |
| CH3(CH2)22COKKKKGGGGLSKGCFGLKLDRIGSMSGLGC ({CH3(CH2)22CO}-KKKKGGGGLSKGCFGLKLDRIGSMSGLGC; not fully specified (bridges); printed as CH3(CH2)22COKKKKGGGGLSKGCFGLKLDRIGSMSGLGC; cysteine pairing not given here; listed as Homo Sapiens) [SEQ ID NO. 122] | – | 251.92 | 209.24 | – |
| CH3(CH2)22COKKKKGGGSLRRSSCFGGRMDRIGAQSGLGCNSFRY ({CH3(CH2)22CO}-KKKKGGGSLRRSSCFGGRMDRIGAQSGLGCNSFRY; not fully specified (bridges); printed as CH3(CH2)22COKKKKGGGSLRRSSCFGGRMDRIGAQSGLGCNSFRY; cysteine pairing not given here; listed as Homo Sapiens) [SEQ ID NO. 95] | – | 260.8 | 245.6 | – |
| GGGGLSKGCFGLKLDRIGSMSGLGC (listed as Homo Sapiens) [SEQ ID NO. 60] | – | 49.98 | 16.85 | no loss activity compared to ANP |
| GGGSLRRSSCFGGRMDRIGAQSGLGCNSFRY (listed as Homo Sapiens) [SEQ ID NO. 4] | – | 41.66 | -11.79 | – |
| GGLSKGCFGLKLDRIGSMSGLGC (listed as Homo Sapiens) [SEQ ID NO. 58] | – | 27.09 | 5.10 | no loss activity compared to ANP |
| GGSLRRSSCFGGRMDRIGAQSGLGCNSFRY (listed as Homo Sapiens) [SEQ ID NO. 3] | – | 46.79 | 0.16 | – |
| GLSKGCFGLKLDRIGSMSGLGC [SEQ ID NO. 57, reference compound] | – | 93.75 | 24.55 | – |
| GSLRRSSCFGGRMDRIGAQSGLGCNSFRY (listed as Homo Sapiens) [SEQ ID NO. 2] | – | 44.08 | -13.85 | – |
| KGGGSLRRSSCFGGRMDRIGAQSGLGCNSFRY (listed as Homo Sapiens) [SEQ ID NO. 5] | – | 59.96 | 44.34 | – |
| KKGGGSLRRSSCFGGRMDRIGAQSGLGCNSFRY (listed as Homo Sapiens) [SEQ ID NO. 6] | – | 28.6 | -4.81 | – |
| KKKGGGSLRRSSCFGGRMDRIGAQSGLGCNSFRY (listed as Homo Sapiens) [SEQ ID NO. 7] | – | 23.40 | -1.19 | – |
| KKKKGGGSLRRSSCFGGRMDRIGAQSGLGCNSFRY (listed as Homo Sapiens) [SEQ ID NO. 8] | – | 53.00 | 15.25 | – |
